Laboratory results from the NIST ThermoML archive (doi:10.1016/j.jct.2013.08.013).
± gives the expanded uncertainty stated by the source.

Columns and labels:
[1] = xn = mol fraction of the nth substance listed; conditions: 101 kPa, Liquid; for speed of sound: Frequency=2 MHz, Linear variable-path acoustic interferometer; for mass density: Vibrating tube method
[2] = 101 kPa, Liquid; for speed of sound: Frequency=2 MHz, Linear variable-path acoustic interferometer; for mass density: Vibrating tube method

Cc1ccccc1Cl [2-chlorotoluene] + CCCCCCCO
[1]
Conditions | mass density, 298.15 K [kg/m3] | mass density, 303.15 K [kg/m3] | mass density, 308.15 K [kg/m3] | speed of sound, 298.15 K [m/s] | speed of sound, 303.15 K [m/s] | speed of sound, 308.15 K [m/s]
x1 = 0.0984 | 840.51 ± 0.16 | 836.79 ± 0.16 | 833.05 ± 0.16 | 1324.4 ± 1.9 | 1311 ± 1.9 | 1289.7 ± 1.9
x1 = 0.1921 | 861.75 ± 0.16 | 857.88 ± 0.16 | 853.98 ± 0.16 | 1320.1 ± 1.9 | 1306 ± 1.9 | 1284 ± 1.9
x1 = 0.2969 | 886.24 ± 0.16 | 882.16 ± 0.16 | 878.15 ± 0.16 | 1313.6 ± 1.9 | 1298.6 ± 1.9 | 1276.2 ± 1.9
x1 = 0.3983 | 910.69 ± 0.15 | 906.43 ± 0.15 | 902.26 ± 0.15 | 1306.5 ± 1.9 | 1290.7 ± 1.9 | 1268.5 ± 1.9
x1 = 0.4949 | 934.8 ± 0.15 | 930.38 ± 0.15 | 926.11 ± 0.15 | 1299.3 ± 1.9 | 1283.1 ± 1.9 | 1260.9 ± 1.9
x1 = 0.5961 | 960.97 ± 0.15 | 956.41 ± 0.15 | 952.02 ± 0.15 | 1293.5 ± 1.9 | 1276.2 ± 1.9 | 1254.8 ± 1.9
x1 = 0.7028 | 989.68 ± 0.14 | 985.06 ± 0.14 | 980.6 ± 0.14 | 1289.2 ± 1.9 | 1271.5 ± 1.9 | 1250.4 ± 1.9
x1 = 0.7968 | 1016.16 ± 0.15 | 1011.5 ± 0.15 | 1006.94 ± 0.14 | 1287.7 ± 1.9 | 1270.3 ± 1.9 | 1249.7 ± 1.9
x1 = 0.8993 | 1046.27 ± 0.16 | 1041.59 ± 0.15 | 1036.99 ± 0.15 | 1289.1 ± 1.9 | 1273.5 ± 1.9 | 1254.3 ± 1.9
x1 = 1 | 1077.38 ± 0.15 | 1072.8 ± 0.15 | 1068.21 ± 0.15 | 1299.8 ± 1.9 | 1283.6 ± 1.9 | 1265.6 ± 1.9

CCCCCCCO [heptan-1-ol]
[2]
Conditions | mass density [kg/m3] | speed of sound [m/s]
298.15 K | 818.79 ± 0.16 | 1326.5 ± 1.9
303.15 K | 815.21 ± 0.16 | 1313.6 ± 1.9
308.15 K | 811.62 ± 0.16 | 1293.1 ± 1.9

CCCO [propan-1-ol] + Cc1ccccc1Cl
[1], x2 = 0
Conditions | mass density [kg/m3] | speed of sound [m/s]
298.15 K | 799.65 ± 0.17 | 1206.5 ± 1.8
303.15 K | 795.65 ± 0.17 | 1188.6 ± 1.8
308.15 K | 791.65 ± 0.17 | 1171.8 ± 1.8

CCCCCCO [hexan-1-ol] + Cc1ccccc1Cl
[1], x2 = 0
Conditions | mass density [kg/m3] | speed of sound [m/s]
298.15 K | 815.31 ± 0.4 | 1303.2 ± 2.4
303.15 K | 811.7 ± 0.4 | 1286.4 ± 2.4
308.15 K | 808.06 ± 0.4 | 1269.7 ± 2.3

Cc1ccccc1Cl [2-chlorotoluene] + CCCCO
[1]
Conditions | mass density, 298.15 K [kg/m3] | mass density, 303.15 K [kg/m3] | mass density, 308.15 K [kg/m3] | speed of sound, 298.15 K [m/s] | speed of sound, 303.15 K [m/s] | speed of sound, 308.15 K [m/s]
x1 = 0.0914 | 837.37 ± 0.17 | 833.28 ± 0.17 | 829.2 ± 0.17 | 1247.4 ± 1.8 | 1231.4 ± 1.8 | 1213.3 ± 1.8
x1 = 0.2026 | 873.25 ± 0.16 | 868.95 ± 0.17 | 864.69 ± 0.17 | 1255.5 ± 1.9 | 1238.2 ± 1.8 | 1219.2 ± 1.8
x1 = 0.2888 | 899.51 ± 0.16 | 895.11 ± 0.16 | 890.72 ± 0.16 | 1260.1 ± 1.9 | 1241.1 ± 1.9 | 1222.2 ± 1.8
x1 = 0.3958 | 930.38 ± 0.15 | 925.85 ± 0.15 | 921.35 ± 0.16 | 1264.2 ± 1.9 | 1244.1 ± 1.9 | 1224.3 ± 1.8
x1 = 0.4973 | 958.03 ± 0.15 | 953.44 ± 0.15 | 948.87 ± 0.15 | 1267.1 ± 1.9 | 1246 ± 1.9 | 1226 ± 1.8
x1 = 0.6021 | 985.11 ± 0.14 | 980.47 ± 0.14 | 975.89 ± 0.14 | 1269 ± 1.9 | 1249.2 ± 1.9 | 1227.4 ± 1.9
x1 = 0.6969 | 1008.43 ± 0.14 | 1003.83 ± 0.14 | 999.22 ± 0.14 | 1271.4 ± 1.9 | 1250.4 ± 1.9 | 1231 ± 1.8
x1 = 0.7892 | 1030.29 ± 0.15 | 1025.68 ± 0.14 | 1021.07 ± 0.14 | 1276.7 ± 1.9 | 1255.4 ± 1.9 | 1236.4 ± 1.8
x1 = 0.894 | 1054.17 ± 0.15 | 1049.55 ± 0.15 | 1044.94 ± 0.15 | 1285.6 ± 1.9 | 1266.4 ± 1.9 | 1247 ± 1.9
x1 = 1 | 1077.38 ± 0.15 | 1072.8 ± 0.15 | 1068.21 ± 0.15 | 1299.8 ± 1.9 | 1283.6 ± 1.9 | 1265.6 ± 1.9

Cc1ccccc1Cl [2-chlorotoluene] + CCCCCCO
[1]
Conditions | mass density, 298.15 K [kg/m3] | mass density, 303.15 K [kg/m3] | mass density, 308.15 K [kg/m3] | speed of sound, 298.15 K [m/s] | speed of sound, 303.15 K [m/s] | speed of sound, 308.15 K [m/s]
x1 = 0.0974 | 839.69 ± 0.37 | 835.89 ± 0.37 | 832.09 ± 0.37 | 1304.1 ± 2.3 | 1287 ± 2.3 | 1268.7 ± 2.3
x1 = 0.1968 | 864.67 ± 0.34 | 860.71 ± 0.34 | 856.77 ± 0.34 | 1302 ± 2.2 | 1284.3 ± 2.2 | 1266 ± 2.2
x1 = 0.3046 | 892 ± 0.31 | 887.87 ± 0.3 | 883.78 ± 0.3 | 1298.3 ± 2.2 | 1280.2 ± 2.2 | 1260.7 ± 2.2
x1 = 0.3967 | 915.57 ± 0.27 | 911.34 ± 0.27 | 907.1 ± 0.27 | 1294.3 ± 2.1 | 1275.7 ± 2.1 | 1255.7 ± 2.1
x1 = 0.489 | 939.38 ± 0.24 | 934.99 ± 0.24 | 930.68 ± 0.24 | 1290.1 ± 2.1 | 1271.1 ± 2.1 | 1250.9 ± 2.1
x1 = 0.5955 | 967.24 ± 0.21 | 962.7 ± 0.21 | 958.3 ± 0.21 | 1286.1 ± 2 | 1266.2 ± 2 | 1246.3 ± 2
x1 = 0.6902 | 992.34 ± 0.19 | 987.72 ± 0.19 | 983.26 ± 0.19 | 1283.6 ± 2 | 1264.1 ± 2 | 1244.4 ± 2
x1 = 0.8086 | 1024.27 ± 0.18 | 1019.61 ± 0.17 | 1015.04 ± 0.17 | 1284.7 ± 2 | 1265.4 ± 1.9 | 1246.2 ± 1.9
x1 = 0.8949 | 1047.98 ± 0.17 | 1043.25 ± 0.17 | 1038.71 ± 0.17 | 1289.1 ± 1.9 | 1270.5 ± 1.9 | 1250 ± 1.9
x1 = 1 | 1077.38 ± 0.15 | 1072.8 ± 0.15 | 1068.21 ± 0.15 | 1299.8 ± 1.9 | 1283.6 ± 1.9 | 1265.6 ± 1.9
